Measured values taken from patent publication US10800714B2, “Low VOC and low odor aromatic oil” (Dow Global Technologies LLC, priority 2015, dated 2020).

How the values were obtained:
Assay type in all cases: physicochemical
[1] = NBPT mixture storage at −20° C. for 4 weeks (crystal formation, flowability); conditions: solution free of crystal or flowable at −20° C.
Experimental: Recipe: 20 wt % NBPT/80 wt % Solvent
(§1) Each NBPT mixture is stored at three temperatures, room temperature (20-25° C.), 55° C., and −20° C. for 4 weeks to evaluate storage stability at elevated, ambient, and sub-ambient conditions. After 4 weeks of storage, the samples are visually inspected for (1) color, which is an indication of degradation, and (2) crystal formation, which is an indicator of insufficient solvency to carry 20 wt % NBPT.
(§2) NBPT is considered compatible with a solvent if the mixture remained clear, crystal free, and flowable at −20° C. for four weeks, and has little color (colorless or pale yellow) after four weeks at 55° C.

[2] = Solvent vapor pressure at 20° C.; conditions: neat solvent
Experimental: • (1) a vapor pressure of less than or equal to (≤) 0.01 millimeters of mercury (mmHg) at 20° C. as measured by ASTM E1719, • (2) a flash point equal to or greater than (≥) 200° F. (93° C.) as measured by ASTM D3278, • (3) a viscosity less than or equal to (≤) 200 centipoise (cP) at 25° C. as measured by ASTM D445, • (4) a hydroxyl number from 100 to 1,000 as measured by ASTM D4274, and • (5) a VOC content less of than or equal to (≤) 50 weight percent (wt %) as measured by ASTM D6886.
In one embodiment, the fertilizer stabilizer compositions of this invention have a low vapor pressure, typically less than or equal to (≤) 0.01 millimeters of mercury (mmHg), or ≤0.001 mmHg, or ≤0.0001 mmHg, at 20° C. as measured by ASTM E1719.
Only two glycol ethers are identified as compatible with NBPT: methyl CARBITOL™ (as described in WO 2014/028767 A1 and WO 2008/000196 A1, an alkyl glycol ether not of Formula 1, and a comparative sample) and DOWANOL™ EPh6 (a mixture of glycol ethers comprising at least two structures of Formula 1, and an inventive sample). […]

[3] = Compatibility of NBPT with solvent (storage study overall); conditions: clear, crystal free, flowable at −20° C. for four weeks and little color after four weeks at 55° C.; 20 wt % NBPT
Experimental: as §1, §2

| SMILES | Solvency to carry 20 wt % NBPT [1] | Vapor pressure mmHg at 20° C. [2] | Vapor pressure mmHg at 20° C. ([2]; listed as methyl CARBITOL™) | Compatibility with NBPT [3] |
| --- | --- | --- | --- | --- |
| OCCOCCOc1ccccc1 [DOWANOL DiEPh] | not able to produce a NBPT mixture that provides sufficient solvency to carry 20 wt % NBPT |  |  |  |
| OCCOc1ccccc1 [DOWANOL EPh] | not able to produce a NBPT mixture that provides sufficient solvency to carry 20 wt % NBPT |  |  |  |
| CC(O)COc1ccccc1 (stereo not drawn) [DOWANOL PPh] | not able to produce a NBPT mixture that provides sufficient solvency to carry 20 wt % NBPT |  |  |  |
| COCCOCCO [Methyl CARBITOL] |  | 0.23 mmHg | > 0.1 mmHg | compatible |
